Measurements from BindingDB's records for doi:10.1016/j.bmcl.2019.05.029 (Novira Therapeutics, 2019).

Assay: Binding affinity to capsid protein in Hepatitis B virus infected in human HepG2.2.15 cells assessed as inhibition of HBV DNA replication incubated for 3 days followed by replacement of fresh medium containing compound and measured after 3 days by chemiluminescent assay

Structure (SMILES) | EC50
CN1CCCN(S(=O)(=O)c2cc(C(=O)Nc3ccc(F)c(Cl)c3)ccc2F)CC1=O | 220 nM
O=C(Nc1ccc(F)c(Cl)c1)c1ccc(F)c(S(=O)(=O)N2CCCCC(O)C2)c1 (centres undefined) | 170 nM
O=C(Nc1ccc(F)c(Cl)c1)c1ccc(F)c(S(=O)(=O)N2CCCCCC(O)C2)c1 (centres undefined) | 60 nM
O=C(Nc1ccc(F)c(Cl)c1)c1ccc(F)c(S(=O)(=O)N2CCSCC(O)C2)c1 (centres undefined) | 170 nM
O=C(Nc1ccc(F)c(Cl)c1)c1ccc(F)c(S(=O)(=O)N2CCOCC(O)C2)c1 (centres undefined) | 100 nM
COC1COCCN(S(=O)(=O)c2cc(C(=O)Nc3ccc(F)c(Cl)c3)ccc2F)C1 (centres undefined) | 130 nM
O=C(Nc1ccc(F)c(Cl)c1)c1ccc(F)c(S(=O)(=O)N2CCOCC(F)C2)c1 (centres undefined) | 80 nM
O=C(Nc1ccc(F)c(Cl)c1)c1ccc(F)c(S(=O)(=O)N2CCCC(O)CC2)c1 (centres undefined) | 140 nM
CC1(O)CCCCN(S(=O)(=O)c2cc(C(=O)Nc3ccc(F)c(Cl)c3)ccc2F)C1 (centres undefined) | 120 nM
O=C(Nc1ccc(F)c(Cl)c1)c1ccc(F)c(S(=O)(=O)N2CCCCC(O)CC2)c1 (centres undefined) | 52 nM
CN1CCN(S(=O)(=O)c2cc(C(=O)Nc3ccc(F)c(Cl)c3)ccc2F)CC(O)C1 (centres undefined) | 470 nM
O=C(Nc1ccc(F)c(Cl)c1)c1ccc(F)c(S(=O)(=O)N2CCOC[C@@H](O)C2)c1 | 140 nM
CC(O)C1CCCCN(S(=O)(=O)c2cc(C(=O)Nc3ccc(F)c(Cl)c3)ccc2F)C1 (centres undefined) | 140 nM
O=C(Nc1ccc(F)c(Cl)c1)c1ccc(F)c(S(=O)(=O)N2CCOC[C@H](O)C2)c1 | 63 nM
O=C(Nc1ccc(F)c(Cl)c1)c1ccc(F)c(S(=O)(=O)N2CCCCCCC2O)c1 (centres undefined) | 120 nM
O=C(Nc1ccc(F)c(Cl)c1)c1ccc(F)c(S(=O)(=O)N2CCCCC(F)(F)C2)c1 | 140 nM
CC1(O)CCCN(S(=O)(=O)c2cc(C(=O)Nc3ccc(F)c(Cl)c3)ccc2F)CC1 (centres undefined) | 110 nM
O=C(Nc1ccc(F)c(Cl)c1)c1ccc(F)c(S(=O)(=O)N2CCCCC(CO)C2)c1 (centres undefined) | 140 nM
CC1(O)COCCN(S(=O)(=O)c2cc(C(=O)Nc3ccc(F)c(Cl)c3)ccc2F)C1 (centres undefined) | 100 nM
